Laboratory results as given in patent publication US20230374591A1, “METHODS AND AGENTS FOR TREATING, PREVENTING, DIAGNOSING, AND EVALUATING THERAPY FOR FIBROTIC, AUTOIMMUNE, AND INFLAMMATORY CONDITIONS” (THE TRUSTEES OF DARTMOUTH COLLEGE, priority 2020, published 2023).

Tests used:
[1] = SCOT trial outcomes / event free survival analysis; assay type: in vivo, human; settings: CYC arm, median split, P=0.04
Text: (§1) The SCOT trial compared the therapeutic outcomes of myeloablative CD34+selected autologous HSCT and CYC in severe diffuse SSc patients (for study design details of SCOT trial, see Sullivan K. M. et al., N Engl J Med. 2018 Jan. 4; 378(1): 35-47. doi: 10.1056/nejmoa1703327. [PMID: 29298160]). The trial provided gene expression in the peripheral blood cells (PBCs) from 30 SSc patients who completed HSCT treatment, 33 patients who completed CYC treatment, and 28 healthy controls (Franks J. M. et al., Ann Rheum Dis. 2020 Sep. 15; annrheumdis-2020-217033. doi: 10.1136/annrheumdis-2020-217033. Online ahead of print. [PMID: 32933919]). In the current study, Applicant analyzed the longitudinal expression profile of SCOT patients from baseline to 54 months. 20 month and 26 month data were merged (referred to as 20/26 months), and 48 month and 54 month data were merged (referred to as 48/54 months).
Survival analysis was performed using the “survival” R package based on gene level data. Only the baseline gene expression data were considered for these analyses. Patients were divided into two groups using the median expression value of a given gene as cutoff Briefly, high expression group is patients' gene expression greater than or equal to the median value and low expression group is patients' gene expression lower than the median value. […]

ACVR1C = assay: SCOT trial longitudinal PBC gene expression: ACVR1C; assay type: in vivo, human; settings: PBCs of SSc patients, baseline to 48/54 months, imputed data
Text: as §1
(§2) To reduce the statistical bias of downstream comparisons, Applicant applied seasonal adjustment and linear interpolation to impute those missing time points. The “imputeTS” R package was used. Patients with only baseline gene expression data and no longitudinal samples were not imputed (n=20; 32% of participants; 10 for cyclophosphamide and 10 for transplant).

Interleukin 6 (IL6) = assay: SCOT trial longitudinal PBC gene expression: IL6; assay type: in vivo, human; settings: PBCs of SSc patients
Text: as §1, §2

TGF beta = settings: cited from earlier work

Row | Compound | hazard ratio (HR) for EFS, higher vs lower baseline CLCF1 expression [1] | ACVR1C expression over time (ACVR1C) | IL6 expression over time (Interleukin 6 (IL6)) | SSc biomarkers (TGF beta; SSc patients) | clinical symptoms (TGF beta; SSc patients) | trial result (TGF beta; SSc)
1 | O=P1(N(CCCl)CCCl)NCCCO1 (stereo not drawn) [CYC, cyclophosphamide] | 3.15 | flat trend | increased |  |  | 
2 | fresolimumab: anti-TGF beta monoclonal antibody therapy |  |  |  | decreased | improved | promising results
